In PMC11942890, “Identification of a Novel NPC1L1 Inhibitor from Danshen and Its Role in Nonalcoholic Fatty Liver Disease” (International Journal of Molecular Sciences, 2025):

Legend:
[1] = target: T1, Niemann-Pick C1-like 1 (NPC1L1) (Homo sapiens, UniProt Q9UHC9); assay: NBD-cholesterol uptake inhibition in hL1-Caco2 cells stably expressing human NPC1L1; assay type: cell-based
T1 construct: hNPC1L1 CDS (NM_001101648.2) with 3 × Flag tag at the 3′ end, stably expressed in Caco2 cells (hL1-Caco2)

[2] = target: T1, Niemann-Pick C1-like 1 (NPC1L1); assay: reference inhibitor; NPC1L1 inhibition in hL1-Caco2 cells (NBD-cholesterol uptake); assay type: cell-based

T1 sequence (Q9UHC9 other isoform, or with tags, fused parts or gaps): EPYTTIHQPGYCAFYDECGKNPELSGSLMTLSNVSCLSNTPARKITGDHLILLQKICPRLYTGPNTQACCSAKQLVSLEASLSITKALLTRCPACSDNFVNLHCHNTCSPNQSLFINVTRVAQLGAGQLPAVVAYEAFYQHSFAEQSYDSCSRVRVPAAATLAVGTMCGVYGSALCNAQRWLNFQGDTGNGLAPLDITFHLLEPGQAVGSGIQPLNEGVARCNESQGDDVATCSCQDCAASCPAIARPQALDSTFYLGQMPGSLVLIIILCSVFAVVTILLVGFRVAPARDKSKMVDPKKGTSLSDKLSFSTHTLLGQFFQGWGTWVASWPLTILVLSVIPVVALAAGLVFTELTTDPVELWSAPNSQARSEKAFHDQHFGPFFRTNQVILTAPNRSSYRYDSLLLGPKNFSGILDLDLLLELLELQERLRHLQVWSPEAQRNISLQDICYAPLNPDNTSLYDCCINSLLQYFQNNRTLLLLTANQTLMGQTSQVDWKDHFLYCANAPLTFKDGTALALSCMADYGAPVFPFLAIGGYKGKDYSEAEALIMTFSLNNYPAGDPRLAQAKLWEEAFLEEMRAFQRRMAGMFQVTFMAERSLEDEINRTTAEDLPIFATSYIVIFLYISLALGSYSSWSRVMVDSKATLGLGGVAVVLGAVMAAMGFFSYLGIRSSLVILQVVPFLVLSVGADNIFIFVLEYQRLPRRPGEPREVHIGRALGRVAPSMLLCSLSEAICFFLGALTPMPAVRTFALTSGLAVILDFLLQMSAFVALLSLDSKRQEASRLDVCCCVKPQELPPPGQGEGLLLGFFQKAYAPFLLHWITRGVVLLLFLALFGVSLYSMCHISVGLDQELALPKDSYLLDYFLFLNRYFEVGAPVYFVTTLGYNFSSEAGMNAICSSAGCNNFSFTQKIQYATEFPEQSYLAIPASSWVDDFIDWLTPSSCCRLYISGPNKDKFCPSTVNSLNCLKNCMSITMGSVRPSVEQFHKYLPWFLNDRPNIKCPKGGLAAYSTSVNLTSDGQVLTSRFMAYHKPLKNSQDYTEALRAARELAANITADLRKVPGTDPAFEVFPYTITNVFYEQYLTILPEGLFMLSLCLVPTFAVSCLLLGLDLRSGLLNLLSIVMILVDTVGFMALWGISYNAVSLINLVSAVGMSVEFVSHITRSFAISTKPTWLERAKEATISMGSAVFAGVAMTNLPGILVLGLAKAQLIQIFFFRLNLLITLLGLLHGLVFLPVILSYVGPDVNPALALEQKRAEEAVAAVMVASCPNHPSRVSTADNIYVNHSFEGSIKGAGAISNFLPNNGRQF

SMILES	IC50 [1] [µM]	IC50 [2] [µM]
C[C@H]1COC2=C1C(=O)C(=O)c1c2ccc2c1CCCC2(C)C [F1-1, cryptotanshinone]	12.3	
O=C1[C@H](CC[C@H](O)c2ccc(F)cc2)[C@@H](c2ccc(O)cc2)N1c1ccc(F)cc1 [ezetimibe]		0.35
